Source: US10874719B2, “Nucleotide phosphate dissipation as a treatment for vascular disorders” (THE REGENTS OF THE UNIVERSITY OF MICHIGAN, priority 2007, dated 2020)

How the values were obtained:
IFN-γ and IL-2 mRNA = assay: Tracheal allograft T-helper 1 cytokine mRNA, real time PCR; format: in vivo, mouse; conditions: compared with vehicle; for expression of IFN-γ mRNA: wild type allograft
Source text: A heterotopic model, characterized by epithelial and subepithelial lymphocyte infiltration by one was also used (Lama, et al, Am J Pathol 169: 47-60, 2006). Donor tracheas were harvested as described above. The trachea was inserted in a subcutaneous pouch created after a 3-mm incision and blunt dissection in the back of the neck. The skin pocket was closed with a size 5.0 nylon suture.
Total RNA was extracted from frozen each mouse tracheas using RNeasy Mini Protocol for Tissues (Qiagen, Valencia, Calif.) and reverse transcribed using a High Capacity cDNA Archive Kit (ABI, Foster City, Calif.), in each case according to the manufacturer's instructions. One microgram of sample RNA was transcribed to cDNA. Real-time PCR was performed on an Applied Biosystems 7000 Real-Time PCR System (ABI) data collection system, and analyses were performed using the accompanying software.
PCR fluorogenic probes for all the target genes and the endogenous reference were purchased as TaqMan® Gene Expression Assays (ABI).
A2A receptor agonist 2-p-(2-carboxyethyl) phenethylamino-5′-N-ethylcarboxamidoadenosine (CGS-21680, 2 mg/kg/day), A2A receptor antagonist 5-Amino-7-(β-phenylethyl)-2-([…])pyrazolo(4,3-e)-1,2,4-triazolo1,5-c pyrimidine (SCH-58261, 2 mg/kg/day), A3 receptor agonist [2-chloro-N^6-(3-iodobenzyl)adenosine-5′-N-methyluronamide (Cl-IBMECA 1 mg/kg/day), A3 receptor antagonist 3-Ethyl 5-benzyl 2-methyl-6-phenyl-4-phenylethynyl-1,4-(±)-dihydropyridine-3,5-dicarboxylate (MRS 1191 2 mg/kg/day) or vehicle (0.1% DMSO in PBS) was administered in a sterile 0.1-ml volume by intraperitoneal injection every 12 hours after surgery. The doses of the adenosine-receptor agonists' were chosen according to previous studies (Erdmann, et al, Blood 105: 4707, 4714, 2005; Hasko, et al, Faseb J 14: 2065-2074, 2000; Satoh, et al, Pancreas 24: 75-82, 2002; Satoh, Gastroenterology 119: 829-836, 2000). The adenosine receptor agonists and antagonists were obtained from Sigma Chemicals (St. Louis, Mo.).

[1] = system: T lymphocytes transmigrating across bEnd.3 endothelial cells; assay: Allomismatched transmigration coculture of endothelial cells and T lymphocytes; format: cell-based, mouse
Source text: (§1) T lymphocytes were purified from splenocytes of CD73^+/+ and CD73^−/− mice (H-2^b) using a Dynal mouse T cell negative isolation kit (Invitrogen). The BALB/c (H-2^d)-derived endothelial cell line bEnd.3 was obtained from American Type Culture Collection (Manassas, Va.).
(§2) To further elucidate the effects of CD73 on interactions between endothelial cells and T lymphocytes found in cardiac allografts, we performed an allomismatched coculture of endothelial cells (H-2^d) and lymphocytes (H-2^b; CD73^+/+ or CD73^−/−) with or without APCP in vitro. First, we evaluated the contribution of T lymphocytes to endothelial cells on the simple coculture experiments. […] Next, we evaluated the contribution of endothelial cells to T lymphocytes utilizing transmigration coculture experiments.

[2] = system: endothelial cell line bEnd.3 with T lymphocytes; assay: Allomismatched simple coculture of endothelial cells and T lymphocytes; format: cell-based, mouse; conditions: 72-h coculture with CD73−/− T-lymphocytes, addition of APCP
Source text: as §1, §2

cardiac allografts [3] = assay: Heterotopic cardiac transplantation: graft survival; format: in vivo, mouse
Protocol: (§3) Completely allomismatched murine heterotopic cardiac transplantation was performed for the present study, as previously described in detail by us^13. Two groups (n=6 in each group) were used to study donor sources of CD73 (CD73^+/+ or CD73^−/− donors into B10A recipients) and another two groups (n=6 in each group) were used to study recipient sources (B10A donors into CD73^+/+ or CD73^−/− recipients). In experiments of adenosine receptor modulators, CBA/J mice were used as donors or recipients instead of B10A mice (n=4 to 6 in each group, as indicated).
Database management and statistical analysis were performed with the Statview version 5.0 software (SAS institute Inc., Cary, N.C.). All values are expressed as means±SEM. Kaplan-Meier analysis was performed to evaluate graft survival, and survival differences were compared by a log-rank test. Comparisons among groups were performed with an unpaired Student t test or one-way analysis of variance (ANOVA) where appropriate. Values of P<0.05 were considered statistically significant.
(§4) To further evaluate the CD73-mediated contribution of specific AR subtypes during allograft rejection or CAV, we performed heterotopic cardiac transplantation using AR modulators given intraperitoneally. First, we examined which AR is acutely responsible for increased vascular leakage in the murine heterotopic cardiac transplantation model. […] Based on the results of this graft permeability assay, we selected A2AR agonists (A2A, CGS21680; A2B, NECA) to establish their potential effects on cardiac allograft rejection or vasculopathy. […] The next set of experiments was designed to measure the role of the A2BAR in CAV.

tracheal allografts = assay: Orthotopic trachea transplant model: graft luminal occlusion and CD3 positive T cell infiltration; format: in vivo, mouse
Source text: Two well-established tracheal transplant models were used to study the effect of CD73 on the pathogenesis of allograft rejection. The first model was the previously described double lumen airway (orthotopic) transplant model for studying chronic airway rejection (Harada, et al, Am J Physiol Lung Cell Mol Physiol 293: […]-130, 2007; Minamoto, et al, J Exp Med 202: 283-294, 2005). Briefly, after anesthesia, donor mice were exsanguinated, and whole trachea was harvested by transecting below the cricoid cartilage distal to the […] bifurcation under sterile conditions. Recipient mice were similarly anesthetized, and the whole trachea was exposed. Distal (the seventh intercartilaginous space) and proximal (immediately subjacent to the cricoid cartilage area) orifices positioned on the recipient trachea were anastomosed with both ends of the tracheal graft. This air permissive model mimics lymphocytic bronchitis and allows studies focusing on inflammation. All surgeries were performed using a Leitz-Wild surgical microscope (Urban Engineering, Burbank, Calif.) under ×16 magnifications. Grafts were harvested at the indicated time points and embedded en bloc in Tissue Freezing Medium (Triangle Biomedical Sciences, Durham, N.C.) in Disposable Base Molds (Richard-Allan Scientific, Kalamazoo, Mich.) in liquid nitrogen and stored at -80° C. until the time of analysis. For the orthotopic model histochemical staining was performed for elastin (Accustain; Sigma-Aldrich) to determine graft luminal occlusion on 5-μm-thick sections. Immunostaining was also performed using, serial adjacent sections from each group, with primary antibodies directed against a pan-T-cell marker (hamster anti-mouse CD3; BD Pharmingen, San Diego, Calif.). Morphometric measurements of cross-sectional areas were performed by blindly tracing both epithelial and subepithelial areas using a computer-assisted image analysis system (AxoCamHR; Carl Zeiss Microimaging, Thornwood, N.Y.). […]-130, 2007). Quantitative analysis of T cell infiltration was performed by manually counting the number of CD3-positive cells in epithelial and subepithelial layer under high-power magnified fields. […] The doses of the adenosine-receptor agonists' were chosen according to previous studies ([…], et al, Blood 105: 4707, 4714, 2005; Hasko, et al, Faseb J 14: 2065-2074, 2000; Satoh, et al, Pancreas 24: 75-82, 2002; Satoh, Gastroenterology 119: 829-836, 2000). The adenosine receptor agonists and antagonists were obtained from Sigma Chemicals (St. Louis, Mo.).

cardiac allografts [4] = assay: Heterotopic cardiac transplantation: cardiac allograft vasculopathy, luminal occlusion of graft coronary arteries; format: in vivo, mouse; conditions: day 30 post-transplantation, both CD73+/+ and CD73−/− donors or recipients, vs wild-type non-treatment controls
Protocol: as §3, with “indicated). […]” for “indicated).”
as §4

[5] = CD73−/− donors or recipients, compared with wild-type non-treatment controls
[6] = compared with non-treatment controls

SMILES: CCOC(=O)C1=C(C)NC(c2ccccc2)=C(C(=O)OCc2ccccc2)C1C#Cc1ccccc1 (racemic) [MRS 1191, 3-Ethyl 5-benzyl 2-methyl-6-phenyl-4-phenylethynyl-1,4-(±)-dihydropyridine-3,5-dicarboxylate]
- expression of IFN-γ mRNA (IFN-γ and IL-2 mRNA): did not affect

SMILES: Nc1ncnc2c1ncn2[C@@H]1O[C@H](COP(=O)(O)CP(=O)(O)O)[C@@H](O)[C@H]1O [APCP]
- transmigration of T-lymphocytes ([1]; 24-h coculture of CD73−/− T-lymphocytes): significantly enhanced
- IFN-γ mRNA upregulation in post-transmigrated T-lymphocytes ([1]; coculture of CD73−/− T-lymphocytes): no significant enhancement
- endothelial cell TNF-α mRNA upregulation [2]: significantly enhanced
- endothelial cell VCAM-1 mRNA upregulation [2]: significantly enhanced

SMILES: CCNC(=O)[C@H]1O[C@@H](n2cnc3c(N)nc(NCCc4ccc(CCC(=O)O)cc4)nc32)[C@H](O)[C@@H]1O [CGS-21680, 2-p-(2-carboxyethyl) phenethylamino-5′-N-ethylcarboxamidoadenosine]
- expression of IFN-γ mRNA (IFN-γ and IL-2 mRNA): down-regulated
- expression of IL-2 mRNA (IFN-γ and IL-2 mRNA; wild type allografts): down-regulated
- graft survival (cardiac allografts [3]; [5]): no significant increase
- graft survival (cardiac allografts [3]; [6]): significantly increased
- CD3 positive cell infiltrations (tracheal allografts; CD73−/− allografts, mean±SEM): 79±28
- luminal obliteration (tracheal allografts; CD73−/− allografts, mean±SEM): 36±3%
- CD3 positive cell infiltrations (tracheal allografts; wild type allografts, compared with vehicle): less
- graft luminal obliteration (tracheal allografts; wild type allografts, compared with vehicle, 1 week after transplantation, i.p. every 12 hours): significantly reduced

SMILES: CNC(=O)[C@H]1O[C@@H](n2cnc3c(NCc4cccc(I)c4)nc(Cl)nc32)[C@H](O)[C@@H]1O [Cl-IBMECA, 2-chloro-N^6-(3-iodobenzyl)adenosine-5′-N-methyluronamide]
- expression of IFN-γ mRNA (IFN-γ and IL-2 mRNA): did not affect

SMILES: CCNC(=O)[C@H]1O[C@@H](n2cnc3c(N)ncnc32)[C@H](O)[C@@H]1O [NECA]
- severity of luminal occlusion (cardiac allografts [4]): significantly attenuated
- graft survival (cardiac allografts [3]; [5]): significantly increased
- graft survival compared with CGS21680-treated recipients (cardiac allografts [3]; NECA-treated vs CGS21680-treated recipients): significantly longer
- graft survival (cardiac allografts [3]; [6]): significantly increased

SMILES: Nc1nc2c(cnn2CCc2ccccc2)c2nc(-c3ccco3)nn12 [SCH-58261, 5-Amino-7-(β-phenylethyl)-2-([…])pyrazolo(4,3-e)-1,2,4-triazolo1,5-c pyrimidine]
- expression of IFN-γ mRNA (IFN-γ and IL-2 mRNA): did not affect
